The values that follow are results of earlier work, collected in patent US20240156825A1, “USE OF SELECTIVE VEGFR2 AND FGFR1 INHIBITORS” (Fountain Therapeutics Inc., priority 2022, published 2024).

The target of one data set is VEGFR2 (Homo sapiens, UniProt P35968). The settings on record: reported IC50 to VEGFR2, read-out: VEGFR2 IC50_μM, cited from earlier work.
In the next data set the test system is any gene target. The note with it: next lowest IC50 value to any gene target, read-out: Min IC50_μM, cited from earlier work.
Setting [1] is: Table 3, selective inhibitors of VEGFR2.

SMILES strings stand for the structures. Where two headings read alike, the source gives them in different places.

VEGFR2, sequence (P35968 20-1356, species assumed): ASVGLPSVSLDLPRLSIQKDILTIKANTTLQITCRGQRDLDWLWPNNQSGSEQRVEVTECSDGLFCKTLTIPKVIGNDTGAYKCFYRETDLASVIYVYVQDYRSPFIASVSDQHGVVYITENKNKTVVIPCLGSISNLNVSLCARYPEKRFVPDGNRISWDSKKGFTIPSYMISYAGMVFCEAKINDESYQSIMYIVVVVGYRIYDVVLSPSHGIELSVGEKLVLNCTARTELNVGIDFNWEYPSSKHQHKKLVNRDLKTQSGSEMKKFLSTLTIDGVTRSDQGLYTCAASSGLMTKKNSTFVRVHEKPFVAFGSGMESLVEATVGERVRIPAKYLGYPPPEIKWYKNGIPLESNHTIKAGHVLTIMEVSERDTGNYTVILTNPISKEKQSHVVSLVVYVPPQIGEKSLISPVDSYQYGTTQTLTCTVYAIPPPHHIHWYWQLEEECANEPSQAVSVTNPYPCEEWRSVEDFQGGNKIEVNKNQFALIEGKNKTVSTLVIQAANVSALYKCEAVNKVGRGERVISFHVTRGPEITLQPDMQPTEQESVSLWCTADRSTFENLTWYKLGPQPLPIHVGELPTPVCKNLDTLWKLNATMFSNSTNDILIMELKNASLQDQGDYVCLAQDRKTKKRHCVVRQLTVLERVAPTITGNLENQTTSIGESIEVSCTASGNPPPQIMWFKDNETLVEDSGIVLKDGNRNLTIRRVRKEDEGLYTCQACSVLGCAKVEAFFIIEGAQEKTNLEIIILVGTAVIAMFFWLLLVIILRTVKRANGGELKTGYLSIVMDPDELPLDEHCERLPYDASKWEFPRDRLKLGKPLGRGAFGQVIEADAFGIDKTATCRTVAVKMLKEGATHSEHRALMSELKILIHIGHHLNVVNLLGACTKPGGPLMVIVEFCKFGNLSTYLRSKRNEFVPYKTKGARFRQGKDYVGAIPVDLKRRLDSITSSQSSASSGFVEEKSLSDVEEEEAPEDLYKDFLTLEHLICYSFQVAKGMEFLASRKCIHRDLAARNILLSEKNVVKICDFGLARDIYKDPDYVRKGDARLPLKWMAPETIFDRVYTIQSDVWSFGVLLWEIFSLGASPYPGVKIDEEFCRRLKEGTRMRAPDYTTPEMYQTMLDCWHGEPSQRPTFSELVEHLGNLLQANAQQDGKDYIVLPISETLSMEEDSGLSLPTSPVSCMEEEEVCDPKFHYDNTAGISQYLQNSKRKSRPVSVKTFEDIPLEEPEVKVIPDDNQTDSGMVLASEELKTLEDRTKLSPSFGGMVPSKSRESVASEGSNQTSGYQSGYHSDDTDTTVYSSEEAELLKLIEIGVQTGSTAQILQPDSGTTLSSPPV

In the case of `COc1cc2ncnc(Nc3ccc(F)cc3)c2cc1OCCCC(=O)NO` [compound 127026070], the values for the IC50 on VEGFR2 and in the data set on any gene target were 376 nM and 1340 nM, respectively.

Turning to `COc1cc2c(Nc3ccc(Br)c(Cl)c3)ncnc2cc1O[C@@H]1CCOC1` [compound 58013780], the IC50 on VEGFR2 (setting [1]) and in the data set on any gene target (Table 3) was 50 nM in each case.

Take `COc1cc2c(Nc3ccc(Cl)cc3F)ncnc2cc1OCCCN1CCN(C)CC1` [compound 21701597]: the IC50 was 20 nM on VEGFR2 and 50 nM in the data set with any gene target.

As to `COc1cc(C2=C(c3cn(COc4ccccc4)c4ccccc34)CNC2=O)cc(OC)c1OC` [compound 24894997], the IC50 on VEGFR2 is 1500 nM; with any gene target, 1700 nM.

As to `COc1ccc(-c2cnc3cncc(Nc4ccc(N5CCCCC5)cc4)c3n2)cc1` [compound 57332844], the results for the IC50 on VEGFR2 and in the data set with any gene target were 2050 nM and 2270 nM, respectively.

For the compound `COc1cc2c(Nc3ccc(F)c(Cl)c3F)ncnc2cc1OCC1CN(C)C(C)(C)CO1` (centres unmarked) [compound 57802650], the IC50 at VEGFR2 and in the data set with any gene target was 50 nM throughout.

Consider `COc1cc2c(Nc3ccc(Br)c(Cl)c3F)ncnc2cc1OCC1CN(C)CCO1` (centres unmarked) [compound 57802566], for which the IC50 on VEGFR2 (setting [1]) and with any gene target (Table 3) was 50 nM in each case.

Consider `O=C(Nc1cccc(-c2cn3ccnc3c(NCc3ccncc3)n2)c1)Nc1cccc(C(F)(F)F)c1` [compound 11755812], for which the IC50 on VEGFR2 is 33 nM; in the data set on any gene target, 35 nM.

Consider `CCCCN1CCOC(COc2cc3ncnc(Nc4ccc(Cl)c(Cl)c4)c3cc2OC)C1` (centres unmarked) [compound 57802833], for which the IC50 at VEGFR2 (setting [1]) and in the data set on any gene target (Table 3) was 50 nM each time.

As to `Cc1[nH]nc2cc(N(C)c3ccnc(Nc4cccc(S(N)(=O)=O)c4)n3)ccc12` [compound 21956341], the IC50 on VEGFR2 is 0.6 nM; in the data set on any gene target it was 700 nM.

On to `CCN1CCCCC1c1nc(COc2cc3ncnc(Nc4ccc(Cl)c(Cl)c4)c3cc2OC)no1` (centres unmarked) [compound 57802919], for which the IC50 on VEGFR2 (setting [1]) and in the data set on any gene target (Table 3) was 50 nM throughout.

Take `COc1cc2c(Nc3ccc(Br)c(Cl)c3F)ncnc2cc1OC[C@@H]1CN2CCOC[C@H]2CO1` [compound 9937516]: the IC50 on VEGFR2 (setting [1]) and with any gene target (Table 3) was 50 nM each time.

Regarding `COc1cc2c(Nc3ccc(Br)cc3F)ncnc2cc1OC[C@@H]1CCCN(C)C1` [compound 5329056], the IC50 is 1 nM at VEGFR2 and 60 nM in the data set with any gene target.

Take `CNc1cc2c(cn1)cc(-c1ccc(F)c(NC(=O)Nc3cc(C(C)(C)C)no3)c1)c(=O)n2[C@H]1CCOC1` [compound 122177477]: the IC50 was 0.46 nM at VEGFR2 and 1 nM with any gene target.

For the compound `Oc1cc(O)c2cc(O)c(-c3cc(O)c(O)c(O)c3)[o+]c2c1` [compound 68245], the IC50 is 5.09 nM on VEGFR2 and 6.27 nM in the data set on any gene target.

Consider `COc1cc2c(Nc3ccc(F)c(Cl)c3F)ncnc2cc1OC[C@H]1CN2CCOC[C@H]2CO1` [compound 10028639], for which the IC50 at VEGFR2 (setting [1]) and in the data set on any gene target (Table 3) was 50 nM throughout.

`CSc1cn2c(-c3cn[nH]c3)cnc2c(Nc2cc(C)ns2)n1` [compound 25094210]: the IC50 on VEGFR2 is 36 nM; in the data set on any gene target, 167 nM.

In the case of `COc1cc2c(Nc3ccc(Br)c(Cl)c3Cl)ncnc2cc1OCC1CN(C)CCO1` (centres unmarked) [compound 57802669], the IC50 at VEGFR2 and in the data set with any gene target was 50 nM each time.

On to `COc1cc2c(Nc3ccc(Cl)c(Cl)c3)ncnc2cc1OCc1csc(C2CCCCN2)n1` (centres unmarked) [compound 57802866], for which the IC50 on VEGFR2 (setting [1]) and in the data set with any gene target (Table 3) was 50 nM each time.

For `COc1cc2c(Nc3ccc(F)c(Cl)c3F)ncnc2cc1OCC1CN(C)CCO1` (centres unmarked) [compound 57802680], the IC50 at VEGFR2 and with any gene target was 50 nM each time.

With `COc1cc2c(Nc3ccc(-c4nc5ccccc5s4)cc3)ncnc2cc1OCCCN1CCN(C)CC1` [compound 46225612], the IC50 on VEGFR2 is 12 nM; in the data set on any gene target it was 14 nM.

Consider `COc1cc2c(Nc3ccc(Cl)c(Cl)c3Cl)ncnc2cc1OCC1CN(C)CCO1` (centres unmarked) [compound 57802801], for which the IC50 on VEGFR2 and in the data set on any gene target was 50 nM each time.

As to `COc1cc2c(Nc3ccc(Br)c(Cl)c3F)ncnc2cc1OC[C@H]1CN2CCOC[C@H]2CO1` [compound 10370400], the IC50 on VEGFR2 (setting [1]) and in the data set on any gene target (Table 3) was 50 nM each time.

Take `CCCN1CCCOC(COc2cc3ncnc(Nc4ccc(Cl)c(Cl)c4)c3cc2OC)C1` (centres unmarked) [compound 57802675]: the IC50 on VEGFR2 and in the data set on any gene target was 50 nM in each case.

With `COc1cc2c(Nc3cc(Cl)c(Cl)cc3F)ncnc2cc1OCC1CN(C)CCO1` (centres unmarked) [compound 57802547], the IC50 at VEGFR2 (setting [1]) and with any gene target (Table 3) was 50 nM in each case.

For the compound `COc1cc2c(Nc3ccc(Cl)c(Cl)c3)ncnc2cc1OCc1csc(C2CCN(C)CC2)n1` [compound 57802861], the IC50 on VEGFR2 (setting [1]) and in the data set with any gene target (Table 3) was 50 nM in each case.

For the compound `CC(C)(Nc1nc(Nc2ccc3ncsc3c2)[nH]c(=O)n1)c1ccccc1` [compound 135454992], the IC50 was 35 nM at VEGFR2 and 550 nM with any gene target.

Take `OCCCNc1cncc(-c2cncc(Nc3cccc(Cl)c3)n2)c1` [compound 5330387]: the IC50 at VEGFR2 (setting [1]) and in the data set with any gene target (Table 3) was 5 nM each time.

With `C[C@@H](Nc1ncnc2[nH]c(-c3ccc(CN4CCN(CCCCCC(=O)NO)CC4)cc3)cc12)c1ccccc1` [compound 24900442], the IC50 on VEGFR2 and with any gene target was 100 nM each time.

Take `COCCOc1cc2ncnc(Nc3cc(O)c(Cl)cc3F)c2cc1OC` [compound 5329013]: the IC50 on VEGFR2 (setting [1]) and in the data set with any gene target (Table 3) was 2 nM in each case.

As for `COc1cc2c(Nc3ccc(Br)c(Cl)c3Cl)ncnc2cc1OC[C@H]1CN2CCCC[C@H]2CO1` [compound 134150926], the IC50 on VEGFR2 (setting [1]) and in the data set on any gene target (Table 3) was 50 nM each time.

Regarding `COc1cc2c(Nc3cc(Cl)c(Cl)cc3F)ncnc2cc1OC[C@@H]1CN2CCOC[C@H]2CO1` [compound 66838463], the IC50 at VEGFR2 (setting [1]) and in the data set with any gene target (Table 3) was 50 nM throughout.

Consider `COc1cc2c(Nc3ccc(Cl)c(Cl)c3F)ncnc2cc1OC[C@@H]1CN2CCC[C@H]2C(=O)N1C` [compound 53630920], for which the IC50 on VEGFR2 (setting [1]) and with any gene target (Table 3) was 50 nM each time.

As for `COc1cccc(-c2ccc3c(c2)NC(=O)/C3=C\c2[nH]c3c(c2CCC(=O)O)CCCC3)c1` [compound 5329169], the figures for the IC50 on VEGFR2 and with any gene target were 70 nM and 100 nM, respectively.

As for `Cc1ccc(NC(=O)c2ccc(C(C)(C)C)s2)cc1Nc1nc2ccccc2n1-c1cc(N)ncn1` [compound 15949617], the IC50 on VEGFR2 and in the data set with any gene target was 4 nM in each case.

Turning to `CCN(Cc1cc(Nc2nc(C)cn3c(-c4cn[nH]c4)cnc23)sn1)C(C)(C)CO` [compound 53317913], the IC50 at VEGFR2 (setting [1]) and in the data set on any gene target (Table 3) was 1 nM in each case.

Turning to `C[C@@H](Nc1ncnc2[nH]c(-c3ccc(CN4CCN(CCCCC(=O)NO)CC4)cc3)cc12)c1ccccc1` [compound 24900441], the IC50 on VEGFR2 and with any gene target was 100 nM throughout.

As for `CCN1CCOC(COc2cc3ncnc(Nc4ccc(Cl)c(Cl)c4)c3cc2OC)C1` (centres unmarked) [compound 57802737], the IC50 on VEGFR2 and with any gene target was 50 nM throughout.

Regarding `COc1cc2c(Nc3ccc(Cl)c(Cl)c3)ncnc2cc1OC[C@H]1CN2CCC[C@@H]2CO1` [compound 57802880], the IC50 on VEGFR2 (setting [1]) and in the data set with any gene target (Table 3) was 50 nM in each case.

In the case of `COc1cc2c(Nc3ccc(Cl)cc3F)ncnc2cc1OCCN1CCN(C)CC1` [compound 4913175], the values for the IC50 on VEGFR2 and in the data set on any gene target were 30 nM and 100 nM, respectively.

Turning to `COc1cc2c(Nc3ccc(Cl)c(Cl)c3F)ncnc2cc1OC[C@@H]1CN2CCC[C@H]2C(=O)N1` [compound 53630923], the IC50 on VEGFR2 (setting [1]) and with any gene target (Table 3) was 50 nM each time.

For the compound `O=C(CCCCCN1CCN(Cc2ccc(-c3cc4c(NCc5ccccc5)ncnc4[nH]3)cc2)CC1)NO` [compound 24900714], the IC50 at VEGFR2 (setting [1]) and in the data set on any gene target (Table 3) was 100 nM throughout.

Regarding `COc1cc2c(Nc3ccc(Cl)c(Cl)c3)ncnc2cc1OC[C@@H]1CN2CCC[C@@H]2CO1` [compound 57802582], the IC50 on VEGFR2 (setting [1]) and with any gene target (Table 3) was 50 nM each time.

On to `O=C(CSC(=S)N1CCCCC1)Nc1cccc(NC(=O)c2ccccn2)c1` [compound 155562216], for which the IC50 was 27 nM on VEGFR2 and 84 nM in the data set on any gene target.

As for `COc1cc2c(Nc3cc(O)c(Cl)cc3F)ncnc2cc1OCC1CCN(C)CC1` [compound 73357210], the IC50 at VEGFR2 (setting [1]) and in the data set on any gene target (Table 3) was 3 nM in each case.

On to `COc1cc2c(Nc3ccc(Cl)c(Cl)c3)ncnc2cc1OC1C[C@@H]2CN(C)C[C@@H]2C1` (some centres unmarked) [compound 10253661], for which the IC50 on VEGFR2 (setting [1]) and with any gene target (Table 3) was 50 nM in each case.

On to `Cn1ccc2ncnc(Oc3ccc(NC(=O)Nc4cccc(C(F)(F)F)c4)c(F)c3)c21` [compound 15949613], for which the IC50 was 0.033 nM on VEGFR2 and 15 nM with any gene target.

For `COc1cc2c(Nc3ccc(Cl)c(Cl)c3)ncnc2cc1OCC1CN(C)C(C)(C)CO1` (centres unmarked) [compound 57802660], the IC50 at VEGFR2 and in the data set on any gene target was 50 nM each time.

`CCN1CCCC(c2nc(COc3cc4ncnc(Nc5ccc(Cl)c(Cl)c5)c4cc3OC)no2)C1` (centres unmarked) [compound 58013772]: the IC50 on VEGFR2 (setting [1]) and in the data set with any gene target (Table 3) was 50 nM each time.

Take `CCN(CC)[C@H]1CO[C@H]2[C@@H]1OC[C@@H]2Oc1cc2ncnc(Nc3ccc(Br)c(Cl)c3)c2cc1OC` [compound 67163520]: the IC50 on VEGFR2 (setting [1]) and in the data set with any gene target (Table 3) was 50 nM throughout.

As for `O=C(Nc1cccc(-c2cncc3ccccc23)c1)c1ccccc1NCc1ccncc1` [compound 44368815], the IC50 on VEGFR2 was 1.16 nM; in the data set with any gene target, 52 nM.

For `COc1cc2c(Nc3cc(Cl)c(Cl)cc3F)ncnc2cc1OC[C@@H]1CO[C@H]2[C@@H]1OC[C@@H]2OC` [compound 66954904], the IC50 at VEGFR2 (setting [1]) and in the data set on any gene target (Table 3) was 50 nM throughout.
